According to patent US20130252930A1 (BIOMARIN PHARMACEUTICAL INC., priority 2010, published 2013):
Where two headings read alike, the source gives them in different places.

What was measured:
[1] = target: T1, Human C17,20-lyase (microsomal fraction from human testis) (Homo sapiens, UniProt P05093); experiment: CYP17 enzymatic assay (% inhibition at 10 nM), version 2 (Biological Example 6); format: biochemical; conditions: method: tested at 100 nM; human testis microsome, radiometric
T1 construct: using microsomal fraction from human testis (Celsis Cat #S00110) as the enzyme source; tissue Celsis S00110; host or cells: human testis microsomal fraction
T1 sequence (P05093 1-508): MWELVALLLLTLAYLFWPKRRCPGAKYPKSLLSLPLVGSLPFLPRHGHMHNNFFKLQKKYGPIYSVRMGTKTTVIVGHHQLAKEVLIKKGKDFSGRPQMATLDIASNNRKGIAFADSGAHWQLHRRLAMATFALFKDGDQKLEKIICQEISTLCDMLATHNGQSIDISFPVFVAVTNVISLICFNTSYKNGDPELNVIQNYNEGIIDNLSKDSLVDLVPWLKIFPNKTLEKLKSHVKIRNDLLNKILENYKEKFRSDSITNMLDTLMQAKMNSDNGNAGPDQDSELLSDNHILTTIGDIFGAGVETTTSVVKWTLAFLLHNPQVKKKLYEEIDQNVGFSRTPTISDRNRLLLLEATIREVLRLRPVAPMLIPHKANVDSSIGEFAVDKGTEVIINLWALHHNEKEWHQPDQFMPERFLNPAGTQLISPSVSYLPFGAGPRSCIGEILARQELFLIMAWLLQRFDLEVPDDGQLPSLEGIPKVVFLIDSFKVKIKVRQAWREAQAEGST
Protocol: Human C17,20-lyase enzymatic assays were conducted in 200 μL volume in Eppendorf tubes, using microsomal fraction from human testis (Celsis Cat #S00110) as the enzyme source. Total protein concentration of the microsomal fraction is estimated to be 20 mg/ml. Prior to adding the microsomal fractions, reaction mixtures containing 50 mM NaPO4 buffer (pH 7.4), 1 mM MgCl2, 0.1 mM EDTA, 0.1 mM dithiothreitol, 0.5 mM NADPH, 4 μM 17α-hydroxypregnenolone, 1 μL of [21-^3H]-17α-hydroxypregnenolone (American Radiolabeled Chemicals, ART #1663, Specific activity=50-60 Ci/mmol), and the appropriate testing compounds were incubated for 5 minutes in a 37° C. shaking water bath (150 rpm). Following the 5-minute pre-incubation, 5 μL of human testis microsome was added to each of the reaction mixtures (except for the Negative Controls, which received 5 μL of H2O). After 30-minute incubation at 37° C. in shaking water bath (150 rpm), reactions were stopped by addition of 200 μL of cold chloroform and vigorous shaking for 30 minutes. Tubes were centrifuged at 1,500×g for 15 minutes at 4° C., and the aqueous phase was transferred to fresh Eppendorf tubes. Forty microliters (40 μL) of 8.5% charcoal (Sigma Cat #C6241) suspension was added to each tube, mixed well and incubated at 4° C. for 30 minutes. Tubes were centrifuged at 1,500×g for 15 minutes at 4° C., and 100 μL upper layer from each tube was transferred into each well of a 96-well isoplate (PerkinElmer Cat #6005040). Finally, 100 μL of Optiphase supermix scintillation fluid (PerkinElmer Cat #1200430) was added to each well, mixed by pippeting up and down 3 times. Radioactivity was measured with MicroBeta Trilux Counter using tritium program.
All testing compounds were dissolved and diluted in methanol. Two microliters (2 μL) of the properly diluted test compound was added to each reaction to reach the desired concentration. In Negative control (no enzyme activity) and Activity control (100% enzyme activity), 2 μL of methanol was added. Each data point was tested in duplicate. […]
For compounds of further interest, IC50 value was generated by measuring the inhibition rate at 5 concentrations and using Prism software under “non-linear regression analysis.”

[2] = target: T2, CYP17 (human testicular microsome) (Homo sapiens, UniProt P05093); experiment: CYP17 enzymatic assay (% inhibition at 1 nM) (Biological Example 12); format: biochemical
T2 construct: using microsomal fraction from human testis (Celsis Cat #S00110) as the enzyme source; tissue Celsis S00110; host or cells: human testis microsomal fraction
T2 sequence (P05093 1-508): T1 sequence (P05093 1-508)

in vitro = conditions: human, microsomes, pH 7.4
Protocol: The reaction was started with addition of excess NADPH (5 mg/mL, 15 μL in 0.1 M potassium phosphate buffer, 1.0 mM EDTA, pH 7.4), the total volume is 45 μL (compound final concentration was 1 μM). […] 50 μL of the supernatant was transferred from each well into a 96-well sample plate containing 50 μL of ultra-pure water (Millipore) for LC-MS/MS analysis.

[3] = test system: rat Cyp11B enzyme (rat adrenal mitochondria); experiment: CYP11B enzymatic assay (% inhibition at 100 nM) (Biological Example 9); format: biochemical; conditions: compound at 100 nM
How it was run: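 Sprague Dawley rat adrenal mitochondria were incubated with compound at 100 nM, 0.5 mM NADPH and 0.1 μM 11-deoxycortisol (pH 7.4 Tris buffer) for 60 min at 37 °C. Cortisol was measured by ELISA and corrected by subtracting the no-NADPH background. % inhibition is relative to the no-compound reaction.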

[4] = target: T3, Cyp21 enzyme (Human HEK 293-Cyp21 stable transfected cells) (Homo sapiens, UniProt P08686); experiment: CYP21-HEK293 enzymatic assay (% inhibition at 100 nM) (Biological Example 10); format: cell-based; conditions: HEK 293-Cyp21 cells
T3 construct: expressed in transfected cells
T3 sequence (P08686 1-495): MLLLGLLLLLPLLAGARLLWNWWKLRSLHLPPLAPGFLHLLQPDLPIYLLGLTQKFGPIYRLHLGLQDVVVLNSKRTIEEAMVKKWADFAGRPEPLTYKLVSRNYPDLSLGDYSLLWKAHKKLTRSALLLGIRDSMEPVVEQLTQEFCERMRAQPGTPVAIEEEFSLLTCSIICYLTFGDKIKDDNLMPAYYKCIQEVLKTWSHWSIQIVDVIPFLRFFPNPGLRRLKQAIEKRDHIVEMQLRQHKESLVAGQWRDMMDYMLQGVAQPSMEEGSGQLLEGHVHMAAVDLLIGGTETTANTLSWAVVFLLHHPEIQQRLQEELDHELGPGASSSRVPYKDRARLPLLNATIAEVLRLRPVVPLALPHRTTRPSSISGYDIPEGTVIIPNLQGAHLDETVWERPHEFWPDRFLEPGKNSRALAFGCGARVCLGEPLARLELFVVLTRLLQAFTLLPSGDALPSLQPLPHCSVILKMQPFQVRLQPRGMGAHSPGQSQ
How it was run: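 HEK293 cells stably expressing human Cyp21 in DMEM + 10% FBS got compound (100 nM reported) for 5 h at 37 °C; 1% methanol served as mock. Progesterone substrate (final 10 μM) was then added for 20 h. DOC in the medium was measured by competitive ELISA (OD 450 nm) against a standard curve.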

[5] = Rat liver microsome stability assay (Biological Example 8a); conditions: liver microsomes, pH 7.4
[6] = target: T2, CYP17 (human testicular microsome); experiment: CYP17 enzymatic assay (% inhibition at 10 nM), version 1 (Biological Example 5); format: biochemical; conditions: 10 nM compound, DHEA by ELISA, read-out: Biological Example No. 5: CYP17 percent inhibition at 10 nM (version 1)
[7] = compound at 1 nM, read-out: CYP17 enzymatic assay % inhibition at 1 nM (Biological Example No. 12)

| SMILES | Biological Example No. 6: CYP17 percent inhibition (version 2) [1] | inhibition at 0.001 µM [2, 7] | half-life at 1 μM (in vitro) | also measured |
| --- | --- | --- | --- | --- |
| CCOc1cncc(C2=CC[C@H]3[C@@H]4CC[C@H]5COC(=O)CC[C@]5(C)[C@H]4CC[C@]23C)c1 [Compound 117, (1S,12S,16S,2R,8R,11R)-15-(5-ethoxy(3-pyridyl))-2,16-dimethyl-6-oxatetracyclo[9.7.0.0^2,8.0^12,16]octadec-14-en-5-one] | G (G means the compound had a percent inhibition of less than 38% but greater than or equal to 3%) |  |  |  |
| CCNC(=O)N[C@@H]1CC[C@@]2(C)C(=CC[C@@H]3[C@@H]2CC[C@]2(C)C(c4cccnc4)=CC[C@@H]32)C1 [Compound 232, 1-((3R,10R,13S)-10,13-dimethyl-17-(pyridin-3-yl)-2,3,4,7,8,9,10,11,12,13,14,15-dodecahydro-1H-cyclopenta[a]phenanthren-3-yl)-3-ethylurea] |  | > 50% | 1 to 50 min |  |
| CCNC(=O)NC1CC[C@@]2(C)C(=CCC3C2CC[C@]2(C)C(n4ccnc4)=CCC32)C1 (stereo partly drawn) [Compound 242, 1-((10R,13S)-17-(1H-imidazol-1-yl)-10,13-dimethyl-2,3,4,7,8,9,10,11,12,13,14,15-dodecahydro-1H-cyclopenta[a]phenanthren-3-yl)-3-ethylurea] |  | > 50% | 1 to 50 min | CYP11B enzymatic assay % inhibition at 100 nM (Biological Example No. 9) [3]: U (U means the compound had a percent inhibition of greater than or equal to 32%); inhibition at 0.1 µM ([4]; compound at 100 nM, read-out: CYP21-HEK293 enzymatic assay % inhibition at 100 nM (Biological Example No. 10)): < 30% |
| CC(=O)N[C@@H]1CC[C@@]2(C)C(=CC[C@@H]3[C@@H]2CC[C@]2(C)C(c4cncc(C(F)(F)F)c4)=CC[C@@H]32)C1 [Compound 231, N-((3R,10R,13S)-10,13-dimethyl-17-(5-(trifluoromethyl)pyridin-3-yl)-2,3,4,7,8,9,10,11,12,13,14,15-dodecahydro-1H-cyclopenta[a]phenanthren-3-yl)acetamide] |  | 10 to 50% | 1 to 50 min |  |
| C[C@@]1(O)CC[C@@]2(C)C(=CCC3C2CC[C@]2(C)C(c4cncc(F)c4)=CCC32)C1 (stereo partly drawn) [Compound 269, (3R,10R,13S)-17-(5-fluoropyridin-3-yl)-3,10,13-trimethyl-2,3,4,7,8,9,10,11,12,13,14,15-dodecahydro-1H-cyclopenta[a]phenanthren-3-ol] |  |  | > 50 min | inhibition at 0.001 µM ([2]; test compound at 1 nM, read-out: CYP17 enzymatic assay percent inhibition at 1 nM (Biological Example No. 12)): > 50% |
| C[C@]12CCC3C(CCN4C(=O)CC=CC[C@]34C)C1CC=C2c1cccnc1 (stereo partly drawn) [Compound 34, (11aR,13aS)-11a,13a-dimethyl-1-(pyridin-3-yl)-3b,4,5,8,11,11a,11b,12,13,13a-decahydro-3H-azepino[2,1-a]cyclopenta[f]isoquinolin-7(3aH)-one] | F (F means the compound had a percent inhibition of greater than or equal to 38%) |  |  | half-life at 1 μM [5]: 1 to 10 min |
| CC(=O)N[C@@H]1CC[C@@]2(C)C(CC[C@H]3C4=CC=C(c5cccnc5)[C@@]4(C)CC[C@@H]32)C1 (stereo partly drawn) [Compound 244, N-((3R,10S,13S)-10,13-dimethyl-17-(pyridin-3-yl)-2,3,4,5,6,7,8,9,10,11,12,13-dodecahydro-1H-cyclopenta[a]phenanthren-3-yl)acetamide] |  | > 50% | 1 to 50 min |  |
| C[C@]12CCC3C(CCN4C(=O)C=CCC[C@]34C)C1CC=C2c1cccnc1 (stereo partly drawn) [Compound 35, (11aR,13aS)-11a,13a-dimethyl-1-(pyridin-3-yl)-3b,4,5,10,11,11a,11b,12,13,13a-decahydro-3H-azepino[2,1-a]cyclopenta[f]isoquinolin-7(3aH)-one] | F (F means the compound had a percent inhibition of greater than or equal to 38%) |  |  |  |
| COc1cncc(C2=CCC3C4CCC5C[C@H](NC(C)=O)CC[C@]5(C)C4CC[C@]23C)c1 (stereo partly drawn) [Compound 222, N-((3R,10S,13S)-17-(5-methoxypyridin-3-yl)-10,13-dimethyl-2,3,4,5,6,7,8,9,10,11,12,13,14,15-tetradecahydro-1H-cyclopenta[a]phenanthren-3-yl)acetamide] |  | > 50% | 1 to 50 min |  |
| COc1cncc(C2=CC[C@H]3[C@@H]4CC[C@H]5COC(=O)CC[C@]5(C)[C@H]4CC[C@]23C)c1 [Compound 115, (1S,12S,16S,2R,8R,11R)-15-(5-methoxy(3-pyridyl))-2,16-dimethyl-6-oxatetracyclo[9.7.0.0^2,8.0^12,16]octadec-14-en-5-one] | F (F means the compound had a percent inhibition of greater than or equal to 38%) |  |  |  |
| COC(=O)N[C@@H]1CC[C@@]2(C)C(CCC3C2CC[C@]2(C)C(c4cccnc4)=CCC32)C1 (stereo partly drawn) [Compound 219, methyl ((3R,10S,13S)-10,13-dimethyl-17-(pyridin-3-yl)-2,3,4,5,6,7,8,9,10,11,12,13,14,15-tetradecahydro-1H-cyclopenta[a]phenanthren-3-yl)carbamate] |  | > 50% | 1 to 50 min |  |
| COc1cncc(C2=CC=C3[C@@H]4CCC5=CC(=O)CC[C@]5(C)[C@H]4CC[C@]23C)c1 [Compound 83, (10R,13S)-17-(5-methoxypyridin-3-yl)-10,13-dimethyl-6,7,8,9,10,11,12,13-octahydro-1H-cyclopenta[a]phenanthren-3(2H)-one] |  |  | 1 to 50 min | inhibition at 0.01 µM [6]: 50 to 80%; inhibition at 0.1 µM ([4]; 100 nM compound, read-out: Biological Example No. 10: CYP21-HEK293 percent inhibition at 100 nM): ≥ 30% |
